Data taken from patent US5861417A, “Heterocyclic substituted pyrrolidine amide derivatives” (Hoechst Marion Roussel, Inc., priority 1997, dated 1999).

How the values were obtained:
[1] = Metabolic Stability in Guinea Pig Liver S9; type: in vitro ADME; settings: guinea pig liver S9, 10 μM initial, 37° C.
Procedure: (§1) Evaluation of metabolism in human and guinea pig liver
(§2) One skilled in the art can determine the metabolic stability for the compounds of the present invention by determining the rate of disappearance of the test compound in vitro in liver extracts. Metabolic stability is inversely related to the rate of metabolism which can be evaluated by determining the rate of disappearance of the test compounds during the initial linear phase of this assay.
(§3) This method is carried out using either S9 or S10 liver supernatant obtained from either guinea pig or human liver. Guinea pig liver S9 can be purchased from Vitro Technologies, Baltimore, Md. and human liver S9 can be purchased from IIAM, Eaton Pa. Both guinea pig and human S10 supernatant can be prepared as follows: Combine weighed liver (fresh or stored at -80° C. until use) and 1.15% aqueous potassium chloride solution (10-15 mL) and homogenize using a PCU Poltron from Kinematics of Switzerland or equivalent. Combine the homogenate with 1.15% aqueous potassium chloride solution, sufficient so that 3 mL of solution (total) is used per […] of liver, and mix. Store the above homogenate on ice at all times prior to use and at -80° C. for long term storage.
(§4) Centrifuge a 20 mL volume of the homogenate at 12,500 rpm (10,000×gravity) at 3° C. After 20 minutes, remove the cover of white lipid protein, if present, and transfer the supernatant to a clean centrifuge tube. Centrifuge the supernatant at 12,500 (10,000×gravity) at 3° C. for 20 minutes before transfer to a clean storage vessel to give the S10 supernatant. Store the S10 supernatant on ice or at -80° C. for long term storage.
(§5) Prepare a stock solution of each test compound in methanol, such that 0.1 mL of the stock solution when spiked into 16 mL of incubation mixture yields an initial concentration of 10 μM of the test compound. Using this method the methanol content of the final incubation mixture will not exceed 1%.
(§6) Prepare the incubation mixture by combining in an incubation beaker S9 or S10 supernatant (4 mL); an aqueous solution containing 1.1 mM NADP, […] (4 units/2 mL)(0.32 mL); and an aqueous 0.1M dipotassium monohydrogen phosphate solution (7.58 mL). Incubate the test compound by adding 0.1 mL of the stock solution of test compound to an incubation mixture, placed in a shaking water bath at 37° C.
(§7) To determine the rate of disappearance of test compounds in this assay, remove triplicate aliquots (0.5 mL) from the incubation beaker at 1, 3, 5, 10, 15, 30, and 60 minutes. Freeze all aliquots in a hexane/dry-ice slurry to instantly deactivate the enzymes. Store at -70° C. until assayed. The concentration of test compound in each aliquot is determined by HPLC after preparation and as compared to a standard concentration of test compound, such preparations and determinations are well known and appreciated in the art. The rate of disappearance can be determined from the slope of the initial linear phase of this assay by graphing the change in concentration of test compound vs. time.
(§8) Calibration standards for Compound A were prepared as follows: dissolve 10 mg of Compound A (free base) in methanol (10 mL) to give a 1 mg/mL stock solution. Use acetonitrile to dilute 1 mL of stock solution to 10 mL to give a 100 μg/mL spiking standard and serially dilute the 100 μg/mL solution with acetonitrile to give spiking standards having concentrations of 50, 25, 10, 5, 2.5, and 1.0 μg/mL. Calibration standards having concentrations of 10,000; 5,000; 2,500; 1,000; 500; 250; and 100 ng/mL are prepared in duplicated by adding 20 μL of each spiking standards to 0.2 mL of control S9 supernatant. Blanks and samples each receive 20μL of acetonitrile. […]

[2] = Metabolic Stability in Human Liver S9; type: in vitro ADME; settings: human liver S9, 10 μM initial, 37° C.
Procedure: as §1, §2, §3, §4, §5, §6, §7, §8

COc1cc(C(=O)N2CCC(CCN3CCC(C(N)=O)(c4ccccc4)CC3)(c3ccc(Cl)c(Cl)c3)C2)cc(OC)c1OC.Cl (single isomer, unassigned; (+)) [Compound C, (+)-1-(2-(3-(3,4-dichloro-phenyl)-1-(3,4,5-trimethoxy-benzoyl)-pyrrolidin-3-yl)-ethyl)-4-phenyl-piperidine-4-carboxylic acid amide hydrochloride]
concentration ([1]; 1 min): 6300 ng/mL | concentration ([1]; 3 min): 6000 ng/mL | concentration ([1]; 5 min): 5300 ng/mL | concentration ([1]; 10 min): 4800 ng/mL | concentration ([1]; 15 min): 4000 ng/mL | concentration ([1]; 30 min): 3800 ng/mL | concentration ([1]; 60 min): 3500 ng/mL | concentration ([2]; 1 min): 6200 ng/mL | concentration ([2]; 3 min): 5600 ng/mL | concentration ([2]; 5 min): 5900 ng/mL | concentration ([2]; 10 min): 5200 ng/mL | concentration ([2]; 15 min): 4500 ng/mL | concentration ([2]; 30 min): 3200 ng/mL | concentration ([2]; 60 min): 2500 ng/mL
